Several values for one entry are separate records, joined by “and”; a condition that tells them apart may be missing. Equal values may be shown once.
How the values were obtained:
Format in all cases: in vivo
mice (RJ:NMRI, males) = assay: Bright/dark box test (clear/dark transition test)
Protocol: This model, also known as clear/dark transition test, is characterized as a model of conflict, based on the natural tendency to explore new environments versus avoidance of doing so, due to the potential possibility of the presence of aversive stimuli. It is an animal model based on independent behavior of conditioning, therefore, there is no need of learning. In rodents, this model is grounded in their natural aversion to excessively clear environments. This aversion is measured from the ansiogenic component expressed by lower exposure of the animal to the clear compartment.
The method employed followed the procedure described by Crawley and Goodwin (Pharmacol. Biochem. Behav. 1981, 15, 695-699).
The animals were placed on the clear field of a box comprising two compartments, one being illuminate and open (25 x 27 x 27 cm) and the other being dark and close (20 x 27 x 27 cm). Data on the length of stay in each compartment were collected over the three-minute test.
This test aimed at obtaining a comparison profile of response of Compound (A) (3-(2-(-4-(2-methoxyphenyl)piperazin-1-yl)ethyl)quinazolin-4(3H)-one and Compound (B) 3-(2-(4-(2-cyanophenyl)piperazin-1-yl)ethyl)quinazolin-4(3H)-one with known compounds that act by different mechanisms. The comparative compounds were alprazolam (benzodiazepine), paroxetine (ISRS-type antidepressant), venlafaxine (IRSN-type antidepressant) and agomelatine (antidepressant that acts on melatonin and serotonin 5-HT2C receptor). The following doses were employed in this study: Table 1: Tested compounds, concentrations and route of administration.
In this blind study, ten mice (RJ:NMRI, males) were employed per group. Clobazam (12 mg/Kg, i.p. route) was administered under the same study conditions as the reference compound. All compounds were administered 30 minutes before the test.
The test data of the response of substances were analyzed comparing the groups treated with the control vehicle using one-way ANOVA followed by post-hoc analysis of Dunnett's test. The data of the reference substance obtained were analyzed using unpaired Student's t test.

Mice [1] = assay: Sphere hiding test
Protocol: This test is based on the natural aversive behavior to glass and marble of rodents, where the presence of these objects triggers the action of burying (hiding). In this test, there are potential behavioral changes of medicines that may promote an ansiogenic or anxiolytic profile. This is determined by the increase or decrease of the behavior of hiding glass spheres ("marbles") that are randomly distributed on the surface of a box lined with sawdust. The increase of the number of covered balls is an indicative of anxiety, since it is supposed to represent a foreign agent to the animal, whose presence may pose threat. The administration of anxiolytics medicines decreases the number of spheres buried in non-sedative doses.
The method employed followed the procedure described by Broekkamp et al. (Eur. J. Pharmacol., 1986, 126, 223-229).
Mice were individually placed in transparent plastic cages (33 x 21 x 18 cm), with the floor covered by a 5 cm layer of sawdust and 25 glass spheres grouped in the center of the cage. The cage was covered with a perforated plastic cover. Each test cage, along with the glass spheres, were previously impregnated with "mouse odor", and a group of 10 mice was left inside for 15 minutes.
The number of glass spheres covered with sawdust (2/3 or more of the surface) was counted at the end of the 30 minutes of the test.
Each study group consisted of 12 mice. The test was partially blind (substances tested versus vehicle of the tested substances).
This test aimed at obtaining a comparison profile of response of Compound (A) (3-(2-(-4-(2-methoxyphenyl)piperazin-1-yl) ethyl) quinazolin-4 (3H) -one and Compound (B) (3-(2-(4-(2-cyanophenyl)piperazin-1-yl)ethyl)quinazolin-4(3H)-one) with known compounds that act by different mechanisms. The comparative compounds used were alprazolam (benzodiazepine) and paroxetine (ISRS-type antidepressant). These compounds were tested in the following doses: Table 3: Compounds tested, concentrations employed and route of administration.
Fluoxetine (ISRI antidepressant) was used as the positive control substance in the test, and was administered at 32 mg/kg (i.p.).
Quantitative data for the tested substances (number of glass spheres coated with sawdust) were evaluated by comparison with the treated groups using one-way ANOVA followed by planned comparisons against the appropriate vehicles. Data with fluoxetine were compared to the vehicle control using unpaired Student's t test.

Mice [2] = assay: Non-precipitated withdrawal test
Description: This test aims at assessing how the sudden cessation of the administration of a medicine can be associated with the occurrence of withdrawal identifiable symptoms. The types of symptoms examined are feed changes, weight gain, body temperature and the occurrence of one or behavioral symptoms and others, such as tremor, teeth chattering, wet dog body-shaking, diarrhea or piloerection. The triggering of these signs is a first sign that the substance induces dependence after repeated administration.
The method employed followed the procedure described by Goudie and Leathley (Psychopharmacology 1991, 103: 529-537).
Two mice per cage received two administrations per day (approximately 10:00 hours and 16:00 hours) of the test substance continuously during 19 days (day 1 to day 19), with the last administration occurring next to 10:00 hours of the 20th day. Control animals received the same number of administrations of vehicle. […] During the discontinuation phase, all animals received administration of vehicle once a day.
Additionally to the observations made after discontinuing the medicines, the same measures were taken at day 1 and day 10 of treatment, in addition to the 3 last days (days 18 to 20) immediately prior to administration of the dose in the morning to assess the effects of medicines before discontinuation. After discontinuation, the first observation was performed 24 hours after the last administration and, from then on, every 24 hours (days 21 to 28).
For daily measurements, the animals were evaluated with respect to behavioral changes during 5 minutes (two animals simultaneously observed). Then, their body weights and rectal temperatures were measured. Then, they received the proper treatment and were returned to their cages.
The leftover food in their supporters was weighed immediately after all animals return to their cages (only in the mornings), and food consumption in the previous 24 hours was determined.
The body weights, feed consumption and rectal temperatures were also measured 24 hours before the first administration, as reference values. The treated groups were homogenized with regard to body weights on the day preceding the first administration of the tested substances.
Compound (A) (3-(2-(-4-(2-methoxyphenyl)piperazin-1-yl)ethyl)quinazolin-4 (3H)-one) was evaluated in 3 doses (3, 10 and 30 mg/kg) administered orally (p.o.) and compared to the vehicle (control group).
Chlordiazepoxide (64 mg/kg, p.o.) was administered under the same experimental conditions, and was employed as reference substance in the test.
Paroxetine (15 and 30 mg/kg p.o.) was administered under the same experimental conditions and was used as comparative substance.
The test was blinded. Data were analyzed by comparing substances with their control vehicles employing one-way ANOVA with the group as a factor followed by post-hoc Dunnett tests. Data with the reference substance were analyzed using unpaired Student's t test.

[3] = 8 mg/Kg i.p., 30 minutes before the test
[4] = 8 mg/Kg i.p., 30 minutes before the test, three-minute test
[5] = 16 mg/Kg i.p., 30 minutes before the test
[6] = 16 mg/Kg i.p., 30 minutes before the test, three-minute test
[7] = withdrawal phase, 64 mg/kg p.o.

SMILES: COc1ccc2cccc(CCNC(C)=O)c2c1 [Agomelatine, agomelatine]
- Time spent in the clear compartment compared to vehicle % (mice (RJ:NMRI, males); 25 mg/Kg i.p., 30 minutes before the test): -12%
- Time spent in the clear compartment (seconds) (mean ± mean standard error) (mice (RJ:NMRI, males); 25 mg/Kg i.p., 30 minutes before the test, three-minute test): 64.7 ± 4.9 s
- Time spent in the clear compartment compared to vehicle % (mice (RJ:NMRI, males); 50 mg/Kg i.p., 30 minutes before the test): -4%
- Time spent in the clear compartment (seconds) (mean ± mean standard error) (mice (RJ:NMRI, males); 50 mg/Kg i.p., 30 minutes before the test, three-minute test): 70.6 ± 8.5 s
- Time spent in the clear compartment compared to vehicle % (mice (RJ:NMRI, males); 75 mg/Kg i.p., 30 minutes before the test): -3%
- Time spent in the clear compartment (seconds) (mean ± mean standard error) (mice (RJ:NMRI, males); 75 mg/Kg i.p., 30 minutes before the test, three-minute test): 71.3 ± 7.3 s

SMILES: N#Cc1ccccc1N1CCN(CCn2cnc3ccccc3c2=O)CC1 [Compound (B), 3-(2-(4-(2-cyanophenyl)piperazin-1-yl)ethyl)quinazolin-4(3H)-one]
- Time spent in the clear compartment compared to vehicle % (mice (RJ:NMRI, males); 4 mg/Kg i.p., 30 minutes before the test): +37%
- Time spent in the clear compartment (seconds) (mean ± mean standard error) (mice (RJ:NMRI, males); 4 mg/Kg i.p., 30 minutes before the test, three-minute test): 100.9 ± 15.2 s
- Time spent in the clear compartment compared to vehicle % (mice (RJ:NMRI, males); [3]): +40%
- Time spent in the clear compartment (seconds) (mean ± mean standard error) (mice (RJ:NMRI, males); [4]): 103.0 ± 11.5 s
- Time spent in the clear compartment compared to vehicle % (mice (RJ:NMRI, males); [5]): +103%
- Time spent in the clear compartment (seconds) (mean ± mean standard error) (mice (RJ:NMRI, males); [6]): 149.3 ± 11.0 s
- permanence time in the clear compartment (result in words) (mice (RJ:NMRI, males); summary of Table 2 over the doses tested, i.p.): efficient in extending the permanence time in the clear compartment
- Number of Hidden Spheres Compared to vehicle control % (Mice [1]; dose given in Table 4 as (4), i.p.): -42%
- Number of Hidden Spheres (mean ± mean standard error) (Mice [1]; dose given in Table 4 as (4), i.p., 25 glass spheres, counted at the end of 30 minutes): 11.0 ± 3.3
- Number of Hidden Spheres Compared to vehicle control % (Mice [1]; dose given in Table 4 as (8), i.p.): -89%
- Number of Hidden Spheres (mean ± mean standard error) (Mice [1]; dose given in Table 4 as (8), i.p., 25 glass spheres, counted at the end of 30 minutes): 2.1 ± 2.1
- number of hidden spheres (result in words) (Mice [1]; summary of Table 4 over the doses tested, i.p.): significantly reduced the number of hidden spheres

SMILES: CN1C(=O)CC(=O)N(c2ccccc2)c2cc(Cl)ccc21 [Clobazam]
- Time spent in the clear compartment compared to vehicle % (mice (RJ:NMRI, males); 12 mg/Kg i.p., 30 minutes before the test, reference compound): +41%
- Time spent in the clear compartment (seconds) (mean ± mean standard error) (mice (RJ:NMRI, males); 12 mg/Kg i.p., 30 minutes before the test, three-minute test, reference compound): 104.0 ± 5.2 s

SMILES: CNC1=Nc2ccc(Cl)cc2C(c2ccccc2)=[N+]([O-])C1 [Chlordiazepoxide]
- withdrawal syndrome after an extended administration regimen (Mice [2]; overall conclusion of the test, p.o., two administrations per day, day 1 to 20): induces a clear withdrawal syndrome
- behavioral and psychological effects (Mice [2]; treatment phase, 64 mg/kg p.o.): ptosis, hyperactivity, jumps and dyspnoea
- body weight and amount of food consumed (Mice [2]; treatment phase, 64 mg/kg p.o.): did not induce significant changes
- rectal temperature (Mice [2]; treatment phase, 64 mg/kg p.o.): slight increase of rectal temperature
- behavioral and psychological effects (Mice [2]; [7]): intensified the psychological behaviors and symptoms, mainly dyspnoea and hyperactivity, inducing occasional straub tail and teeth chattering
- body weight, amount of food consumed and rectal temperature (Mice [2]; [7]): clear reduction in body weight and the amount of food consumed, and a significant increase of rectal temperature

SMILES: Cc1nnc2n1-c1ccc(Cl)cc1C(c1ccccc1)=NC2 [Alprazolam, alprazolam]
- Time spent in the clear compartment (seconds) (mean ± mean standard error) (mice (RJ:NMRI, males); mouse, in vivo): 103.9 ± 11.5 s and 126.9 ± 10.1 s and 112.7 ± 15.5 s
- Number of Hidden Spheres (mean ± mean standard error) (Mice [1]; mouse, in vivo): 1,6 ± 1,4
- Number of Hidden Spheres Compared to vehicle control % (Mice [1]; mouse, in vivo): -92%
- amount of food consumed (Mice [2]; mouse, in vivo): significant reduction in the amount of food consumed on the first day of abstinence
- body weight, amount of food consumed and rectal temperature (the three studied parameters) (Mice [2]; mouse, in vivo): showed no significant changes
- withdrawal syndrome after an extended administration regimen (Mice [2]; mouse, in vivo, po): induces withdrawal syndrome

SMILES: COc1ccc(C(CN(C)C)C2(O)CCCCC2)cc1 (stereo not shown) [Venlafaxine, venlafaxine]
- Time spent in the clear compartment compared to vehicle % (mice (RJ:NMRI, males); [3]): -2%
- Time spent in the clear compartment (seconds) (mean ± mean standard error) (mice (RJ:NMRI, males); [4]): 72.3 ± 7.3 s
- Time spent in the clear compartment compared to vehicle % (mice (RJ:NMRI, males); [5]): -12%
- Time spent in the clear compartment (seconds) (mean ± mean standard error) (mice (RJ:NMRI, males); [6]): 65.1 ± 6.0 s
- Time spent in the clear compartment compared to vehicle % (mice (RJ:NMRI, males); 32 mg/Kg i.p., 30 minutes before the test): +7%
- Time spent in the clear compartment (seconds) (mean ± mean standard error) (mice (RJ:NMRI, males); 32 mg/Kg i.p., 30 minutes before the test, three-minute test): 78.9 ± 4.9 s

SMILES: CNCCC(Oc1ccc(C(F)(F)F)cc1)c1ccccc1 (stereo not shown) [Fluoxetine]
- Number of Hidden Spheres Compared to vehicle control % (Mice [1]; 32 mg/kg i.p., positive control): -74%
- Number of Hidden Spheres (mean ± mean standard error) (Mice [1]; 32 mg/kg i.p., positive control, 25 glass spheres, counted at the end of 30 minutes): 4.9 ± 2.0

— patent EP3130339A1, “A COMPOUND FOR USE IN THE TREATMENT OF COMORBID ANXIETY DISORDER AND DEPRESSION DISORDER” (Aché Laboratórios Farmacêuticos S.A., priority 2015, dated 2017)
